Reference: paper PMC9652372, “Glycolytic flux control by drugging phosphoglycolate phosphatase” (Nature Communications, 2022)
In brackets after ≈: the same amount, converted by molar mass. Several values for one entry are separate records, joined by “and”; a condition that tells them apart may be missing. Equal values may be shown once.

Assays:
[1] = molecular target: T1, murine PDXP (Mus musculus, UniProt P60487); experiment: PDXP activity towards pyridoxal 5'-phosphate (PLP); settings: phosphatase PDXP; species M.m.; substrate PLP; n.s. = no significant inhibition detectable
T1 sequence (P60487 1-292): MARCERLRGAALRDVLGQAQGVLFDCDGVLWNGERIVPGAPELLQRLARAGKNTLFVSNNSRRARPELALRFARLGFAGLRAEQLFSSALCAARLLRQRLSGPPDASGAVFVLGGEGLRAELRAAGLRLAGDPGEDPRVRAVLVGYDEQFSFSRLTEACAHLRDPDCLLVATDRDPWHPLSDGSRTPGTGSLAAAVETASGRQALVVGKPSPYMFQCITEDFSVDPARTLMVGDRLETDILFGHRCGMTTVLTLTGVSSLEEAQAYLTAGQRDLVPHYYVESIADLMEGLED

[2] = molecular target: T2, PGP (Mus musculus, UniProt Q8CHP8); experiment: Steady state kinetics of PG dephosphorylation in presence of CP1-3
T2 sequence (Q8CHP8 1-321): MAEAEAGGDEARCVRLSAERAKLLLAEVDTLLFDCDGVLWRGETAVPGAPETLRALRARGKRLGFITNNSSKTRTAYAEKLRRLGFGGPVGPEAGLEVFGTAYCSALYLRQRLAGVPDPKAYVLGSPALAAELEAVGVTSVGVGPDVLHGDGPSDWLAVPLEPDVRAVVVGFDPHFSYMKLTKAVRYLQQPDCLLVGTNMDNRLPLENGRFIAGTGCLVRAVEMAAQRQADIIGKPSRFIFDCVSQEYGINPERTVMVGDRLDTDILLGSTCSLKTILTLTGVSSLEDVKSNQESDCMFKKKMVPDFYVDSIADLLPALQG

[3] = molecular target: T3, PGP^WT (Mus musculus, UniProt Q8CHP8); experiment: Differential scanning fluorimetry (Thermofluor); format: binding
T3 construct: His6 (N, cleaved yes); made in house; host or cells: Escherichia coli BL21 (DE3), pETM11, co-expressed with groES-groEL-tig
T3 sequence (Q8CHP8 1-321): T2 sequence (Q8CHP8 1-321)

[4] = molecular target: T4, murine PGP (Mus musculus, UniProt Q8CHP8); experiment: IC50 determination, murine PGP, pNPP dephosphorylation
T4 sequence (Q8CHP8 1-321): T2 sequence (Q8CHP8 1-321)

[5] = molecular target: T4, murine PGP; experiment: biochemical
[6] = physchem; settings: organic solvent or mixture
[7] = molecular target: T5, murine PGP-WT (Mus musculus, UniProt Q8CHP8); experiment: Isothermal titration calorimetry, PGP-WT; format: binding; settings: ITC; for Kd: murine PGP
T5 construct: His6 (N, cleaved yes); made in house; host or cells: Escherichia coli BL21 (DE3), pETM11, co-expressed with groES-groEL-tig
T5 sequence (Q8CHP8 1-321): T2 sequence (Q8CHP8 1-321)
Protocol: Purified murine PGP-WT or PGP-P127E was dialyzed overnight against ITC buffer (30 mM HEPES, 30 mM NaCl, 5 mM MgCl2, 1 mM tris(2-carboxyethyl)phosphine/TCEP; pH 7.5). All calorimetric measurements were performed at 25 °C on an ITC200 microcalorimeter (GE Healthcare). Experiments were conducted with a fixed concentration of 2% DMSO. […] To reduce the effects of ligand leakage from the syringe during baseline equilibration, the heat release of a single 1.2 μL injection was recorded prior to the actual titration experiment, and discarded during data analysis with Nitpic 2.0.7[45]. To determine background heats of dilution, control experiments of ligand into buffer, buffer into protein and buffer into buffer titrations were performed.

[8] = molecular target: T6, murine PDXP/PGP hybrid (Mus musculus, UniProt P60487+Q8CHP8); experiment: PG dephosphorylation by PDXP/PGP hybrid protein; format: biochemical
T6 construct: consisting of the PGP cap domain (amino acids 114–233) fused to the PDXP core domain; His6 (N, cleaved yes); made in house; host or cells: Escherichia coli BL21 (DE3), pETM11
T6 sequence (P60487 1-100): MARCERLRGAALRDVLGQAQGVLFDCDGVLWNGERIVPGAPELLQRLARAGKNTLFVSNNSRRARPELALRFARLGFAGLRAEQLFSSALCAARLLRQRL
T6 sequence (Q8CHP8 114-233): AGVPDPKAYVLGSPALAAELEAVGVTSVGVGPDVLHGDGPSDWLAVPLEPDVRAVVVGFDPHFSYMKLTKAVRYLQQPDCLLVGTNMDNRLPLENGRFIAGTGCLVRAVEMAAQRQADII
T6 sequence (P60487 208-292): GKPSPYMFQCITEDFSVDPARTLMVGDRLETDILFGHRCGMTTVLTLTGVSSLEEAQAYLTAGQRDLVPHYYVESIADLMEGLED

[9] = PG dephosphorylation, increasing CP concentrations

IC50 [1]: n.s.
mode of PGP inhibition [2]: competitive inhibitors
vmax ([2]; CP 1.0 µM): 50.8 ± 4.1 µmol/min/mg
vmax ([2]; CP 2.0 µM): 54.7 ± 4.9 µmol/min/mg
vmax ([2]; CP 4.0 µM): 54.3 ± 11.9 µmol/min/mg
effect on vmax (reduction) [2, 9]: without affecting vmax
increase of KM [2, 9]: ~ 3 fold
TM ([3]; Inhibitor 0.244141 µM): 66.6 °C
TM ([3]; Inhibitor 0.488281 µM): 66.7 °C
TM ([3]; Inhibitor 0.976562 µM): 67.0 °C
TM ([3]; Inhibitor 1.95312 µM): 67.3 °C
TM ([3]; Inhibitor 3.90625 µM): 68.1 °C
TM ([3]; Inhibitor 7.8125 µM): 69.0 °C
TM ([3]; Inhibitor 15.625 µM): 70.4 °C
TM ([3]; Inhibitor 31.25 µM): 71.2 °C
TM ([3]; Inhibitor 62.5 µM): 72.1 °C
TM ([3]; Inhibitor 125 µM): 72.8 °C
TM ([3]; Inhibitor 250 µM): 73.4 °C
IC50 [4]: 13.5 ± 2.51 µM
remaining activity at 10 µM ([4]; read-out: M.m PGP on pNPP, activity, control = 100.00, CP log[M] -5): 45.5%
remaining activity at 5 µM ([4]; read-out: M.m PGP on pNPP, activity, control = 100.00, CP log[M] -5.30103): 61.5%
remaining activity at […] ([4]; read-out: M.m PGP on pNPP, activity, control = 100.00, CP log[M] -5.60206): 74.3%
remaining activity at 80 µM ([4]; read-out: M.m PGP on pNPP, activity, control = 100.00, Log CP3 [M] -4.09691): 12.6%
remaining activity at 40 µM ([4]; read-out: M.m PGP on pNPP, activity, control = 100.00, Log CP3 [M] -4.39794): 20.3%
remaining activity at 20 µM ([4]; read-out: M.m PGP on pNPP, activity, control = 100.00, Log CP3 [M] -4.69897): 33.2%
remaining activity at 1.25 µM ([4]; read-out: M.m PGP on pNPP, activity, control = 100.00, Log CP3 [M] -5.90309): 85.2%
remaining activity at 0.625 µM ([4]; read-out: M.m PGP on pNPP, activity, control = 100.00, Log CP3 [M] -6.20412): 88.3%
remaining activity at 0.3125 µM ([4]; read-out: M.m PGP on pNPP, activity, control = 100.00, Log CP3 [M] -6.50515): 93.8%
remaining activity at 0.15625 µM ([4]; read-out: M.m PGP on pNPP, activity, control = 100.00, Log CP3 [M] -6.80618): 98.4%
remaining activity at 0.078125 µM ([4]; read-out: M.m PGP on pNPP, activity, control = 100.00, Log CP3 [M] -7.10721): 101%
IC50 [5]: 810 nM and 1000 nM
solubility [6]: 50 mM (≈ 19.7 mg/mL)
Kd ([7]; 25 °C, mean ± S.E.M., n = 3): 430 nM
Kd ([7]; single replicates): 500 nM and 320 nM and 460 nM
remaining activity at 16 µM ([8]; activity, control = 100, CP log[M] -4.79588): 1.8%
remaining activity at 4 µM ([8]; activity, control = 100, CP log[M] -5.39794): 13.3%
remaining activity at 1 µM ([8]; activity, control = 100, CP log[M] -6): 41.6%
remaining activity at 0.5 µM ([8]; activity, control = 100, CP log[M] -6.30103): 58.4%
remaining activity at […] ([8]; activity, control = 100, CP log[M] -6.60206): 73.5%
remaining activity at 0.125 µM ([8]; activity, control = 100, CP log[M] -6.90309): 84.1%
remaining activity at 0.0625 µM ([8]; activity, control = 100, CP log[M] -7.20412): 89.4%
remaining activity at 0.015625 µM ([8]; activity, control = 100, CP log[M] -7.80618): 103%
IC50 ([8]; phosphatase PDXP/PGP, species M.m., substrate PG): 970 ± 20 nM
SMILES: O=C(O)c1cc(Nc2ccccc2C(=O)O)nc(Nc2ccccc2C(=O)O)n1 [CP3]
PGP activity ([2]; 1 µM CP3, PG 50 µM): 2.463 µmol Pi/min/mg and 2.403 µmol Pi/min/mg and 1.502 µmol Pi/min/mg
PGP activity ([2]; 1 µM CP3, PG 100 µM): 5.226 µmol Pi/min/mg and 4.205 µmol Pi/min/mg
PGP activity ([2]; 1 µM CP3, PG 200 µM): 10.3316 µmol Pi/min/mg and 9.671 µmol Pi/min/mg and 8.89 µmol Pi/min/mg
PGP activity ([2]; 1 µM CP3, PG 300 µM): 14.7802 µmol Pi/min/mg and 14.2395 µmol Pi/min/mg and 12.9778 µmol Pi/min/mg
PGP activity ([2]; 1 µM CP3, PG 400 µM): 17.1234 µmol Pi/min/mg and 17.6642 µmol Pi/min/mg and 16.5827 µmol Pi/min/mg
PGP activity ([2]; 1 µM CP3, PG 500 µM): 20.9086 µmol Pi/min/mg and 20.1877 µmol Pi/min/mg and 22.1704 µmol Pi/min/mg
PGP activity ([2]; 1 µM CP3, PG 600 µM): 22.1704 µmol Pi/min/mg and 21.0889 µmol Pi/min/mg and 23.7926 µmol Pi/min/mg
PGP activity ([2]; 1 µM CP3, PG 700 µM): 23.4321 µmol Pi/min/mg and 22.7111 µmol Pi/min/mg and 25.4148 µmol Pi/min/mg
PGP activity ([2]; 1 µM CP3, PG 800 µM): 25.7753 µmol Pi/min/mg and 22.1704 µmol Pi/min/mg and 24.3333 µmol Pi/min/mg
PGP activity ([2]; 2 µM CP3, PG 100 µM): 4.445 µmol Pi/min/mg and 3.364 µmol Pi/min/mg and 4.265 µmol Pi/min/mg
PGP activity ([2]; 2 µM CP3, PG 200 µM): 8.469 µmol Pi/min/mg and 7.448 µmol Pi/min/mg
PGP activity ([2]; 2 µM CP3, PG 300 µM): 12.437 µmol Pi/min/mg and 10.4543 µmol Pi/min/mg and 11.8963 µmol Pi/min/mg
PGP activity ([2]; 2 µM CP3, PG 400 µM): 15.6815 µmol Pi/min/mg and 12.7975 µmol Pi/min/mg and 14.7802 µmol Pi/min/mg
PGP activity ([2]; 2 µM CP3, PG 500 µM): 18.7457 µmol Pi/min/mg and 18.5654 µmol Pi/min/mg and 18.3852 µmol Pi/min/mg
PGP activity ([2]; 2 µM CP3, PG 600 µM): 19.6469 µmol Pi/min/mg and 20.7284 µmol Pi/min/mg
PGP activity ([2]; 2 µM CP3, PG 700 µM): 20.9086 µmol Pi/min/mg and 21.8099 µmol Pi/min/mg and 21.0889 µmol Pi/min/mg
PGP activity ([2]; 2 µM CP3, PG 800 µM): 21.4494 µmol Pi/min/mg and 22.3506 µmol Pi/min/mg and 22.7111 µmol Pi/min/mg
PGP activity ([2]; 4 µM CP3, PG 100 µM): 3.4839 µmol Pi/min/mg and 2.463 µmol Pi/min/mg and 3.424 µmol Pi/min/mg
PGP activity ([2]; 4 µM CP3, PG 200 µM): 6.547 µmol Pi/min/mg and 5.706 µmol Pi/min/mg and 6.728 µmol Pi/min/mg
PGP activity ([2]; 4 µM CP3, PG 300 µM): 9.553 µmol Pi/min/mg and 7.39 µmol Pi/min/mg and 12.7975 µmol Pi/min/mg
PGP activity ([2]; 4 µM CP3, PG 400 µM): 12.437 µmol Pi/min/mg and 10.4543 µmol Pi/min/mg and 15.321 µmol Pi/min/mg
PGP activity ([2]; 4 µM CP3, PG 500 µM): 15.6815 µmol Pi/min/mg and 15.5012 µmol Pi/min/mg and 17.484 µmol Pi/min/mg
PGP activity ([2]; 4 µM CP3, PG 600 µM): 16.763 µmol Pi/min/mg and 19.1062 µmol Pi/min/mg
PGP activity ([2]; 4 µM CP3, PG 700 µM): 16.763 µmol Pi/min/mg and 18.0247 µmol Pi/min/mg and 21.8099 µmol Pi/min/mg
PGP activity ([2]; 4 µM CP3, PG 800 µM): 17.3037 µmol Pi/min/mg and 18.2049 µmol Pi/min/mg and 22.5309 µmol Pi/min/mg
dG ([7]; single replicates): -8.598 kcal/mol and -8.862 kcal/mol and -8.651 kcal/mol
dH ([7]; single replicates): -6.466 kcal/mol and -5.835 kcal/mol and -6.568 kcal/mol
dS ([7]; single replicates): 7.151 cal/Mol*K and 10.151 cal/Mol*K and 6.986 cal/Mol*K
